Results as given in US20260125374A1, “PI3K-ALPHA INHIBITORS AND METHODS OF MAKING AND USING THE SAME” (Relay Therapeutics, Inc., priority 2021, published 2026).
Marks after values point to notes of the source that are not given here.

Test: Polymorph screening (equilibration, anti-solvent, slow evaporation, slow cooling, temperature cycling, heating-cooling; XRPD and SFC)
Assay type: physicochemical
Description: This polymorph screening program of compound I-1 free form was performed with two batches of the pure enantiomer. Both batches are crystalline and is assigned as Form A. The polymorphic behaviors of the enantiomer were investigated by equilibration at 25° C. and 50° C., equilibration under a temperature cycle, crystallization from hot saturated solutions by slow cooling, slow evaporation, precipitation by addition of anti-solvent, and DSC heating-cooling cycle experiments. Relative stability of identified polymorphs was investigated by competitive slurry experiments.
About 50 mg of I-1 Form A was weighed into a 2 mL glass vial and equilibrated in suitable amount of solvents (pretreated by molecular sieves) at 25° C. for 2 weeks with a stirring plate and with protection from light. Obtained suspensions were filtered with 0.45 μm nylon membrane and the solid parts (wet cake) were investigated by XRPD. When differences were observed, additional investigations were performed (e.g. DSC, TGA, ^1H-NMR, SFC).
About 50 mg of I-1 Form A was weighed into 2 mL glass vials and equilibrated in suitable amount of solvents (pretreated by molecular sieves) at 50° C. for 10 days with a stirring plate and with protection from light. Obtained suspensions were filtered with 0.45 μm nylon membrane and the solid parts (wet cake) were investigated by XRPD. When differences were observed, additional investigation was performed (e.g. DSC, TGA, ^1H-NMR, SFC).
I-1 Form A was dissolved in a good solvent. […] The solvents used were pretreated by molecular sieve. Precipitates were collected by filtration. The solid part (wet cake) was investigated by XRPD. […] When differences were observed, additional investigations were performed (e.g. DSC, TGA, ^1H-NMR, SFC).
Based on approximate solubility results, I-1 Form A was dissolved in suitable amount of solvents (pretreated by molecular sieves). Obtained solutions were filtered by 0.45 μm nylon filter. […] Solid residues were examined for their polymorphic form. When differences were observed, additional investigations were performed (e.g. DSC, TGA, ^1H-NMR, SFC).
Approximate 50 mg of batch I-1 Form A were dissolved in the minimal amount of selected solvents (without pretreatment by molecular sieves) at 50° C. Obtained solutions were filtered by 0.45 μm nylon filter. […] Precipitates were collected by filtration. The solid parts (wet cake) were investigated by XRPD. When differences were observed, additional investigations were performed (e.g. DSC, TGA, ^1H-NMR, SFC). When no precipitation was obtained or only a few solids were obtained, the solutions were placed at 5° C. for crystallization.
About 50 mg of I-1 Form A was equilibrated in different solvents (pretreated by molecular sieves) under a temperature cycle between 5° C. to 50° C. at a heating/cooling rate of 0.2° C./min for 10 cycles and with protection from light. After 10 cycles, precipitates were collected at 5° C. by filtration. The solid parts (wet cake) were investigated by XRPD. When differences were observed, additional investigations were performed (e.g. DSC, TGA, 1H-NMR, SFC).
Polymorphic behavior of I-1 Form A was investigated by two different heating-cooling cycles of DSC. Cycle 1:30° C. to 280° C. at 10° C./min; 280° C. to −20° C. at 20° C./min; reheat to 300° C. at 10° C./min. Cycle 2:30° C. to 280° C. at 10° C./min; 280° C. to-20° C. at 2° C./min; reheat to 300° C. at 10° C./min.

SMILES: N#Cc1c(-c2cc(NC(=O)c3cc(F)cc(C(F)(F)F)c3)c3c(c2)C(=O)N[C@H]3c2cc(F)ccc2Cl)ccc2ncnn12 [Compound I-1, (R)-N-(3-(2-chloro-5-fluorophenyl)-6-(5-cyano-[1,2,4]triazolo[1,5-a]pyridin-6-yl)-1-oxoisoindolin-4-yl)-3-fluoro-5-(trifluoromethyl)benzamide]
- XRPD (equilibration at 50° C. for 10 days in Ethyl acetate): I-1 Form A
- XRPD (equilibration at 50° C. for 10 days in Isopropyl acetate): I-1 Form A
- XRPD (equilibration at 50° C. for 10 days in MeOH/water(55:45, v/v) a.w. 0.7): I-1 Form A
- XRPD (equilibration at 50° C. for 10 days in Methanol): III-1 Form A
- ee %(SFC) (equilibration at 50° C. for 10 days in Methanol, SFC immediately after preparation): ee % (SFC): 48.4%*
- XRPD (equilibration at 50° C. for 10 days in Methyl ethyl ketone): I-1 Form A
- XRPD (equilibration at 50° C. for 10 days in THF/water(85:15, v/v) a.w. 0.9): I-1 Form A
- XRPD (equilibration at 50° C. for 10 days in Water): I-1 Form A
- XRPD (equilibration at 50° C. for 10 days in t-Butyl methyl ether): I-1 Form A
- ee %(SFC) (equilibration at 50° C. in 1,4-Dioxane, added I-1 Form B seeds and stirred for 4 days): ee %(SFC): 80.1%*
- ee %(SFC) (equilibration at 50° C. in 1,4-Dioxane, with molecular sieve and stirred for 6 days): ee %(SFC): 88.26%*
- ee %(SFC) (equilibration at 50° C. in 1,4-Dioxane, without molecular sieve and stirred for 6 days): ee %(SFC): 81.26%*
- ee %(SFC) (equilibration at 50° C. in THF, added I-1 Form B seeds and stirred for 4 days): ee %(SFC): 82.5%*
- ee %(SFC) (equilibration in ACN/water(80:20, v/v), 25° C., pH 7.27, III-1 Form A seeds, 3 days): ee %(SFC): 90.9%*
- ee %(SFC) (equilibration in ACN/water(80:20, v/v), 25° C., pH 7.27, III-1 Form A seeds, 8 days): ee %(SFC): 89.3%*
- ee %(SFC) (equilibration in ACN/water(80:20, v/v), 50° C., pH 4.48, 3 days): ee %(SFC): 89.6%*
- ee %(SFC) (equilibration in ACN/water(80:20, v/v), 50° C., pH 4.48, 5 days): ee %(SFC): 88.9%*
- ee %(SFC) (equilibration in ACN/water(80:20, v/v), 50° C., pH 6.79, 3 days): ee %(SFC): 67.4%*
- ee %(SFC) (equilibration in EtOH/water(50:50, v/v), 50° C., pH 6.82, 3 days): ee %(SFC): 91.6%*
- ee %(SFC) (equilibration in Methanol, 50° C., pH 6.21, 3 days): ee %(SFC): 87.9%*
- ee %(SFC) (slow cooling 50° C. to 5° C. from 1,4-Dioxane, SFC immediately after preparation): ee %(SFC): −0.2%*
- Comments (outcome) (slow cooling 50° C. to 5° C. from ACN): clear solution
- Comments (outcome) (slow cooling 50° C. to 5° C. from Acetone): clear solution
- Comments (outcome) (slow cooling 50° C. to 5° C. from Benzyl alcohol): clear solution
- Comments (outcome) (slow cooling 50° C. to 5° C. from MEK): clear solution
- Comments (outcome) (slow cooling 50° C. to 5° C. from MeOH): clear solution
- Comments (outcome) (slow cooling 50° C. to 5° C. from THF): clear solution
- XRPD (slow evaporation at room temperature from 1,4-Dioxane): Amorphous form
- XRPD (slow evaporation at room temperature from ACN): Amorphous form
- XRPD (slow evaporation at room temperature from Acetone): Amorphous form
- XRPD (slow evaporation at room temperature from MeOH): III-1D
- XRPD (slow evaporation at room temperature from THF): Amorphous form
- ee %(SFC) (slow evaporation from MeOH (not pretreated by molecular sieves) at 25° C. for 12 days): ee %(SFC): 98.0%*
- ee %(SFC) (slow evaporation from MeOH/DCM(1:1, v/v), added I-1 Form D seeds): ee %(SFC): 88.9%*
- ee %(SFC) (slow evaporation from MeOH, SFC immediately after preparation): ee % (SFC): 68.6%*
- Comments (outcome) (temperature cycling 5° C. to 50° C. in 1,4-Dioxane, target concentration: 250 mg/mL): Clear solution, target concentration: 250 mg/mL
- Comments (outcome) (temperature cycling 5° C. to 50° C. in THF/water(85:15, v/v) a.w. 0.9, target concentration: 250 mg/mL): Clear solution, target concentration: 250 mg/mL
- Comments (outcome) (temperature cycling 5° C. to 50° C. in Tetrahydrofuran, target concentration: 250 mg/mL): Clear solution, target concentration: 250 mg/mL
- XRPD (temperature cycling 5° C. to 50° C., 10 cycles, in 2-MeTHF): I-1 Form A
- XRPD (temperature cycling 5° C. to 50° C., 10 cycles, in ACN/water(80:20, v/v) a.w. 0.9): I-1 Form A
- XRPD (temperature cycling 5° C. to 50° C., 10 cycles, in Acetone): I-1 Form A
- XRPD (temperature cycling 5° C. to 50° C., 10 cycles, in Acetone/water(60:40, v/v) a.w. 0.8): I-1 Form A
- XRPD (temperature cycling 5° C. to 50° C., 10 cycles, in Acetonitrile): I-1 Form A
- XRPD (temperature cycling 5° C. to 50° C., 10 cycles, in Benzyl alcohol): I-1 Form A
- XRPD (temperature cycling 5° C. to 50° C., 10 cycles, in EtOH/water(50:50, v/v) a.w. 0.9): I-1 Form A
- XRPD (temperature cycling 5° C. to 50° C., 10 cycles, in Ethanol): I-1 Form A
- XRPD (temperature cycling 5° C. to 50° C., 10 cycles, in Ethyl acetate): I-1 Form A
- XRPD (temperature cycling 5° C. to 50° C., 10 cycles, in MeOH/water(55:45, v/v) a.w. 0.7): I-1 Form A
- ee %(SFC) (temperature cycling 5° C. to 50° C., 10 cycles, in MeOH/water(55:45, v/v), SFC immediately after preparation): ee %(SFC): 100.0%*
- ee %(SFC) (temperature cycling 5° C. to 50° C., 10 cycles, in Methanol, SFC immediately after preparation): ee %(SFC): 89.4%*
- XRPD (temperature cycling 5° C. to 50° C., 10 cycles, in Methyl ethyl ketone): I-1 Form A
